Our source for the IC50 values is patent publication US20240270751A1, “Pyrazolopyridinone Compounds” (BeiGene Ltd., priority 2021, published 2024).

As usually defined, the IC50 is the concentration that gives 50% inhibition.

One test deals with DGKζ (Homo sapiens (Human), UniProt Q13574). Put plainly: Biochemical DGK IC50 assay, DGKζ ADP-Glo assay. The settings on record: 0.5 nM enzyme, 140 μM ATP, 80 μM DAG; read-out: DGKζ ADP-Glo assay IC50. An outline of the steps:
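Full-length human DGKζ, His-TEV tagged and purified from baculovirus-infected Sf9 cells, assayed by ADP-Glo with DAG/PS lipid micelle substrate prepared in 25 mM HEPES pH 7.0 with octyl glucoside. Final compound concentrations spanned 1.55–10000 nM or 23.3–150000 nM.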

A further test addresses DGKα (Homo sapiens (Human), UniProt P23743). Put plainly: Biochemical DGK IC50 assay, DGKα ADP-Glo assay. The settings on record: 7.5 nM enzyme, 140 μM ATP, 80 μM DAG. An outline of the steps: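 ADP-Glo read-out with full-length DGKα on DAG/PS lipid micelle substrate in 25 mM HEPES pH 7.0, 0.5 mM EDTA, 160 mM octyl β-D-glucopyranoside. Compound final concentrations spanned 1.55˜10000 nM or 23.3˜150000 nM.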

Chain of DGKζ (Q13574 other isoform, or with tags, fused parts or gaps): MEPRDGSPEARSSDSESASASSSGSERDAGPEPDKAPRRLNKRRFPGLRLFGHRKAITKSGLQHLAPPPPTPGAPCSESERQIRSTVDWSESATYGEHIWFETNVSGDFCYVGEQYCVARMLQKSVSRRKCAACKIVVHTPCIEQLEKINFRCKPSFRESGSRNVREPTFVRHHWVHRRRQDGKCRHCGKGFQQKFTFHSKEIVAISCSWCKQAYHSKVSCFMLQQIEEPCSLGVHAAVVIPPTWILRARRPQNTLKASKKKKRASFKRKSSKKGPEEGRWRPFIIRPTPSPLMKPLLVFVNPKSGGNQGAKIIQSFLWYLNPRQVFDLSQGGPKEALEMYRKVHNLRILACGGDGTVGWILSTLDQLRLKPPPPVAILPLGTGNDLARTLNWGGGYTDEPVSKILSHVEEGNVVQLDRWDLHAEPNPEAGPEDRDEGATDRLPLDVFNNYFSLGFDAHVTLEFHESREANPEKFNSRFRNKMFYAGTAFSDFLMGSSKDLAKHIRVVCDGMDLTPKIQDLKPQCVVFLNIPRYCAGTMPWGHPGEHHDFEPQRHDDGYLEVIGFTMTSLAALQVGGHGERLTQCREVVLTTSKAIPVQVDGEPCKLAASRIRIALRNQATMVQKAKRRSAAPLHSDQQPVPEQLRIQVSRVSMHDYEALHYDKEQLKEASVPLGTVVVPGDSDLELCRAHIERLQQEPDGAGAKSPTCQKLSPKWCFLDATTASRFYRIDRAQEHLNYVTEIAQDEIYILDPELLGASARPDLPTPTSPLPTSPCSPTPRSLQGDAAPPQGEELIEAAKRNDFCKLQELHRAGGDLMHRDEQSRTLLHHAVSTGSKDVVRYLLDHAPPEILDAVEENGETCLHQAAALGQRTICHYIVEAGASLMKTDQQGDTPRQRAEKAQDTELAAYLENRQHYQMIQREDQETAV
Chain of DGKα (P23743 whole entry): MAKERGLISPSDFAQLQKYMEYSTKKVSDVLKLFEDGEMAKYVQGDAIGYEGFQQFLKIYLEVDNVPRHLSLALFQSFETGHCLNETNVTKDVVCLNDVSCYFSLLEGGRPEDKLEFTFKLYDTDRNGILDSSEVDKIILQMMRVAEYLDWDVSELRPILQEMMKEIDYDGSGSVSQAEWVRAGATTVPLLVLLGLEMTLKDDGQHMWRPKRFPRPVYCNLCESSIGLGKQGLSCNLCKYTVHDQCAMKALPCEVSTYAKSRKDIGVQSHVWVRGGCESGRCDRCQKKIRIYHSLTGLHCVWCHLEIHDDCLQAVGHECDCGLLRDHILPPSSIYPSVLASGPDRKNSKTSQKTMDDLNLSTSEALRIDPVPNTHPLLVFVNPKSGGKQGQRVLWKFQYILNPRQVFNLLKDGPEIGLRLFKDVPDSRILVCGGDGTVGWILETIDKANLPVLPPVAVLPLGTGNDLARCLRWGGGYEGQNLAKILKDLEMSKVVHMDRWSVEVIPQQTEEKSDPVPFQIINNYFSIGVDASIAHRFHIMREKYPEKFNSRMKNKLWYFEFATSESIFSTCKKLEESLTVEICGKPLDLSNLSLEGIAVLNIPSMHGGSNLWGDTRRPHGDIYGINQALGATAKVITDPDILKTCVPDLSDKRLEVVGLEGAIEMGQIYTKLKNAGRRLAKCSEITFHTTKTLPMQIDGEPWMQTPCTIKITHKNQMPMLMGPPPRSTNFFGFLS

On to `C[C@@H]1CN(c2cc(=O)n(C)c3cn(CC#N)nc23)[C@@H](C)CN1C(c1ccc2nccnc2c1)C(F)F` (stereo partly drawn) [Compound A262, 2-(7-((2S,5R)-4-(2,2-difluoro-1-(quinoxalin-6-yl)ethyl)-2,5-dimethylpiperazin-1-yl)-4-methyl-5-oxo-4,5-dihydro-2H-pyrazolo[4,3-b]pyridin-2-yl)acetonitrile], for which the values for the concentration for half-maximal inhibition (IC50) at DGKζ and at DGKα were 150 nM and > 10000 nM, respectively.

In the case of `CC[C@H]1CN(C(C)c2ccc(C)nc2)[C@H](CC)CN1c1cc(=O)n(C)c2cn(CC#N)nc12` (single isomer, unassigned) [Compound A349a], the IC50 stood at 462 nM on DGKζ and 490 nM at DGKα.

Regarding `Cc1nc2cc(C(C)N3C[C@H](C)N(c4cc(=O)n(C)c5cn(CC#N)nc45)C[C@H]3C)ccc2s1` (stereo partly shown) [Compound A320], the IC50 on DGKζ was 159 nM; against DGKα, 11600 nM.

As to `C[C@H](c1ccc2nccnc2c1)N1CCN(c2cc(=O)n(C)c3cn(CC#N)nc23)CC1C(N)=O` (single isomer, unassigned) [Compound A198b], the IC50 on DGKζ and against DGKα was > 10000 nM throughout.

Regarding `CC[C@H]1CN(C(C)c2ccccc2OC)[C@H](CC)CN1c1cc(=O)n(C)c2cn(CC#N)nc12` (single isomer, unassigned) [Compound A106b], the values for the 50% inhibitory concentration (IC50) at DGKζ and at DGKα were 183 nM and > 10000 nM, respectively.

`CC[C@H]1CN(C(C)c2ccc(F)cc2C(F)(F)F)[C@H](CC)CN1c1cc(=O)n(C)c2c[nH]nc12` (single isomer, unassigned) [Compound A275b]: the concentration for half-maximal inhibition (IC50) at DGKζ was 4390 nM; at DGKα, > 10000 nM.

For the compound `CC[C@H]1CN(C(C)c2ccc(C(N)=O)cc2)[C@H](CC)CN1c1cc(=O)n(C)c2cn(CC#N)nc12` (single isomer, unassigned) [Compound A120b], the IC50 at DGKζ is > 10000 nM; at DGKα, 2260 nM.

With `CC[C@H]1CN(C(C)c2cccc(CO)c2)[C@H](CC)CN1c1cc(=O)n(C)c2cn(CC#N)nc12` (stereo partly shown) [Compound A121b], the 50% inhibitory concentration (IC50) at DGKζ is > 10000 nM; against DGKα, 4160 nM.

As for `CC(c1ccc2nccnc2c1)N1C[C@H](CC#N)N(c2cc(=O)n(C)c3cn(CC#N)nc23)C[C@H]1C` (stereo partly drawn) [Compound A158, 2-((2S,5R)-1-(2-(cyanomethyl)-4-methyl-5-oxo-4,5-dihydro-2H-pyrazolo[4,3-b]pyridin-7-yl)-5-methyl-4-(1-(quinoxalin-6-yl)ethyl)piperazin-2-yl)acetonitrile], the IC50 on DGKζ was 381 nM; at DGKα, > 10000 nM.

Turning to `CC[C@H]1CN(C(C)c2c(OC)cc(F)cc2OC)[C@H](CC)CN1c1cc(=O)n(C)c2cn(CC#N)nc12` (stereo partly shown) [Compound A94], the 50% inhibitory concentration (IC50) on DGKζ was determined as 98 nM; on DGKα it was 9130 nM.

For the compound `CC(c1ccc2nccnc2c1)N1C[C@H](C)N(c2cc(=O)n(C)c3cn(CCO)nc23)C[C@H]1C` (stereo partly shown) [Compound A9], the results for the IC50 at DGKζ and at DGKα were 30000 nM and 27000 nM, respectively.

Consider `CC[C@H]1CN(C(C)c2ccc(OC(F)F)nc2)[C@H](CC)CN1c1cc(=O)n(C)c2cn(CC#N)nc12` (single isomer, unassigned) [Compound A180a], for which the figures for the IC50 at DGKζ and against DGKα were 15 nM and 730 nM, respectively.

Consider `CC[C@H]1CN(C(C)c2cnc(C)cn2)[C@H](CC)CN1c1cc(=O)n(C)c2cn(CC#N)nc12` (stereo partly shown) [Compound A356], for which the IC50 was 1570 nM on DGKζ and 635 nM against DGKα.

`CC(c1ccc2nccnc2c1)N1C[C@H](C)N(c2cc(=O)n(C)c3cn(C4CCC4)nc23)C[C@H]1C` (stereo partly shown) [Compound A14]: the IC50 on DGKζ turned out to be 12000 nM; against DGKα it was 52000 nM.

As to `C=CCn1cc2c(n1)c(N1C[C@@H](C)N([C@@H](C)c3ccc4ncc(C)nc4c3)C[C@@H]1C)cc(=O)n2C` [Compound A301, 2-allyl-7-((2S,5R)-2,5-dimethyl-4-((S)-1-(3-methylquinoxalin-6-yl)ethyl)piperazin-1-yl)-4-methyl-2,4-dihydro-5H-pyrazolo[4,3-b]pyridin-5-one], the IC50 at DGKζ was 131 nM; against DGKα, > 150000 nM.

In the case of `CC(c1ccc2nccnc2c1)N1C[C@H](C)N(c2cc(=O)n(C)c3cn(CC#N)nc23)C[C@H]1C` (mixture of isomers) [Compound A2, 2-(7-((2S,5R)-2,5-dimethyl-4-(1-(quinoxalin-6-yl)ethyl)piperazin-1-yl)-4-methyl-5-oxo-4,5-dihydro-2H-pyrazolo[4,3-b]pyridin-2-yl)acetonitrile], the figures for the IC50 at DGKζ and against DGKα were 71 nM and 7700 nM, respectively.

As for `CC[C@H]1CN(C(C)c2ncc(F)cc2C(F)(F)F)[C@H](CC)CN1c1cc(=O)n(C)c2cn(CC#N)nc12` (stereo partly drawn) [Compound A136, 2-(7-((2S,5R)-2,5-diethyl-4-(1-(5-fluoro-3-(trifluoromethyl)pyridin-2-yl)ethyl)piperazin-1-yl)-4-methyl-5-oxo-4,5-dihydro-2H-pyrazolo[4,3-b]pyridin-2-yl)acetonitrile], the IC50 on DGKζ was determined as 317 nM; at DGKα, 61900 nM.

`CC[C@H]1CN(C(C)c2ccc(F)cc2C)[C@H](CC)CN1c1cc(=O)n(C)c2cn(CC#N)nc12` (stereo partly drawn) [Compound A84, 2-(7-((2S,5R)-2,5-diethyl-4-(1-(4-fluoro-2-methylphenyl)ethyl)piperazin-1-yl)-4-methyl-5-oxo-4,5-dihydro-2H-pyrazolo[4,3-b]pyridin-2-yl)acetonitrile]: the IC50 at DGKζ came out at 128 nM; on DGKα, 2890 nM.

For the compound `CC[C@H]1CN(C(C)c2ccc3c(n2)OCCO3)[C@H](CC)CN1c1cc(=O)n(C)c2cn(CC#N)nc12` (stereo partly drawn) [Compound A159, 2-(7-((2S,5R)-4-(1-(2,3-dihydro-[1,4]dioxino[2,3-b]pyridin-6-yl)ethyl)-2,5-diethylpiperazin-1-yl)-4-methyl-5-oxo-4,5-dihydro-2H-pyrazolo[4,3-b]pyridin-2-yl)acetonitrile], the concentration for half-maximal inhibition (IC50) at DGKζ is 30 nM; against DGKα, 190 nM.

For the compound `CC[C@H]1CN(C(C)c2ccc(F)cc2F)[C@H](CC)CN1c1cc(=O)n(C)c2cn(CC#N)nc12` (single isomer, unassigned) [Compound A132a], the 50% inhibitory concentration (IC50) on DGKζ was 5.9 nM; at DGKα, 8.9 nM.

With `CC#CCn1cc2c(n1)c(N1C[C@@H](CC)N(C(C)c3ccc(F)cc3C(F)(F)F)C[C@@H]1CC)cc(=O)n2C` (single isomer, unassigned) [Compound A238b], the half-maximal inhibitory concentration (IC50) amounted to 256 nM on DGKζ and 1240 nM at DGKα.

As for `CC[C@H]1CN(C(C)c2cnc(C)c(C)n2)[C@H](CC)CN1c1cc(=O)n(C)c2cn(CC#N)nc12` (single isomer, unassigned) [Compound A355a], the half-inhibitory concentration (IC50) on DGKζ was 6420 nM; against DGKα, 10900 nM.

Regarding `Cc1cnc2cc([C@H](C)N3C[C@H](C)N(c4cc(=O)n(C)c5cn(CC#N)nc45)C[C@H]3C)ccc2n1` (single isomer, unassigned) [Compound A269b, 2-(7-((2S,5R)-2,5-dimethyl-4-((S)-1-(2-methylquinoxalin-6-yl)ethyl)piperazin-1-yl)-4-methyl-5-oxo-4,5-dihydro-2H-pyrazolo[4,3-b]pyridin-2-yl)acetonitrile, or 2-(7-((2S,5R)-2,5-dimethyl-4-((R)-1-(2-methylquinoxalin-6-yl)ethyl)piperazin-1-yl)-4-methyl-5-oxo-4,5-dihydro-2H-pyrazolo[4,3-b]pyridin-2-yl)acetonitrile], the half-inhibitory concentration (IC50) was 6850 nM at DGKζ and > 10000 nM against DGKα.

As for `CC[C@H]1CN(C(C)c2cc3cnccc3cn2)[C@H](CC)CN1c1cc(=O)n(C)c2cn(CC#N)nc12` (single isomer, unassigned) [Compound A368b], the IC50 was determined as 382 nM at DGKζ and 91 nM against DGKα.

Turning to `CC[C@H]1CN(C(C)c2ccc(F)cc2OC)[C@H](CC)CN1c1cc(=O)n(C)c2cn(CC#N)nc12` (single isomer, unassigned) [Compound A71b], the IC50 on DGKζ turned out to be 130 nM; at DGKα it was 40000 nM.

For the compound `CC[C@H]1CN(C(C)c2cnc(OC(C)C)cc2F)[C@H](CC)CN1c1cc(=O)n(C)c2cn(CC#N)nc12` (stereo partly shown) [Compound A358], the IC50 on DGKζ is 373 nM; against DGKα, 5830 nM.

Consider `CC#CCn1cc2c(n1)c(N1C[C@@H](CC)N(C(C)c3ccc4c(c3)OC(F)(F)O4)C[C@@H]1C)cc(=O)n2C` (single isomer, unassigned) [Compound A392b], for which the values for the IC50 at DGKζ and on DGKα were > 10000 nM and 1070 nM, respectively.

Take `Cc1cnc2cc([C@H](C)N3C[C@H](C)N(c4cc(=O)n(C)c5cn(CC#N)nc45)C[C@H]3C)ccc2n1` (single isomer, unassigned) [Compound A269a, 2-(7-((2S,5R)-2,5-dimethyl-4-((S)-1-(2-methylquinoxalin-6-yl)ethyl)piperazin-1-yl)-4-methyl-5-oxo-4,5-dihydro-2H-pyrazolo[4,3-b]pyridin-2-yl)acetonitrile, or 2-(7-((2S,5R)-2,5-dimethyl-4-((R)-1-(2-methylquinoxalin-6-yl)ethyl)piperazin-1-yl)-4-methyl-5-oxo-4,5-dihydro-2H-pyrazolo[4,3-b]pyridin-2-yl)acetonitrile]: the IC50 at DGKζ is 365 nM; on DGKα, > 10000 nM.

Turning to `CC#CCn1cc2c(n1)c(N1C[C@@H](CC)N(C(C)c3cc4ccccc4cn3)C[C@@H]1C)cc(=O)n2C` (stereo partly drawn) [Compound A393, 2-(but-2-yn-1-yl)-7-((2S,5R)-5-ethyl-4-(1-(isoquinolin-3-yl)ethyl)-2-methylpiperazin-1-yl)-4-methyl-2,4-dihydro-5H-pyrazolo[4,3-b]pyridin-5-one], the IC50 was found to be 795 nM on DGKζ and 108 nM on DGKα.
